Assay [1] addresses Human CB1R (Cannabinoid receptor 1) (Homo sapiens (Human), UniProt P21554). In words: CB-1 in vitro cAMP assay (HTRF), inverse agonism. The assay is classed as cell-based. The note with it: mean where tested more than once. In general terms: Changes in cAMP serve as a functional read-out for many G protein-coupled receptors.
The target in assay [2] is Human CB2R (Cannabinoid receptor 2) (Homo sapiens (Human), UniProt P34972). Description: CB-2 in vitro cAMP assay (HTRF), inverse agonism. The assay is classed as cell-based. The following applies: mean where tested more than once.

Structures are written as SMILES. Counter-ions that a name gives are not always drawn. Some results are limits rather than exact numbers.

Chain of Human CB1R (Cannabinoid receptor 1) (P21554 whole entry): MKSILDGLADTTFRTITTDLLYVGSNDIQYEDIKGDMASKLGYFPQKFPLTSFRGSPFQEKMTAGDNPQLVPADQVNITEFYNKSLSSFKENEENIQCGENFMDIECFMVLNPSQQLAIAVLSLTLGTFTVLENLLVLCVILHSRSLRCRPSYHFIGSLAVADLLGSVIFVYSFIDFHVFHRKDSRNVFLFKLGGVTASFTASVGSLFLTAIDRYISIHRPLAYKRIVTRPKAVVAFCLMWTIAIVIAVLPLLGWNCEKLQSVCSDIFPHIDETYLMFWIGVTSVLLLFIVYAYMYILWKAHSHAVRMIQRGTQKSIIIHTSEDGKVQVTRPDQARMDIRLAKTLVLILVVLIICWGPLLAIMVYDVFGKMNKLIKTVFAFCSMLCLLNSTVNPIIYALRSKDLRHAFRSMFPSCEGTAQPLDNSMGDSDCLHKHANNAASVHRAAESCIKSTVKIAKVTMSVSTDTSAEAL
Chain of Human CB2R (Cannabinoid receptor 2) (P34972 whole entry): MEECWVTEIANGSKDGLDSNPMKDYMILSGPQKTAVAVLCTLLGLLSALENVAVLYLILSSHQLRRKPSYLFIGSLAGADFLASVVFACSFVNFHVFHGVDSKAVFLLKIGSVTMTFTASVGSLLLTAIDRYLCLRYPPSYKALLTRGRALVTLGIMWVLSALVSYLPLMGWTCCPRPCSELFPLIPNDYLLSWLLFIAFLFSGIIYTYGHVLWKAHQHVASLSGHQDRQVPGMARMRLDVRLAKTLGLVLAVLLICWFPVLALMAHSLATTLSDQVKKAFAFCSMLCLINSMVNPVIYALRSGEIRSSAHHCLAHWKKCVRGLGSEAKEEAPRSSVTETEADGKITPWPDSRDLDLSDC

The EC50 is the concentration needed to bring the measured effect to its halfway point. A lower EC50 goes with greater potency. Take `O=C(O)CCCOc1ccc(Nc2cc(=O)[nH]c3ccc(C(c4ccc(Cl)cc4)c4ccc(Cl)cc4)cc23)cc1` [Compound 121, 4-[4-({6-[Bis(4-chlorophenyl)methyl]-2-oxo-1,2-dihydroquinolin-4-yl}amino)phenoxy]butanoic acid]: the 50% effective concentration (EC50) is 1010 nM in assay [1] and > 10000 nM in assay [2].
The like results for `O=C(O)c1ccc(S(=O)(=O)N2CCC(Nc3cc(=O)[nH]c4ccc(C(c5ccc(Cl)cc5)c5ccc(Cl)cc5)cc34)CC2)cc1` [Compound 122, 4-((4-((6-(bis(4-chlorophenyl)methyl)-2-oxo-1,2-dihydroquinolin-4-yl)amino)piperidin-1-yl)sulfonyl)benzoic acid] were, in that order, 159 nM and 240 nM.
In the same order, the values of `NC(=O)CCCOc1ccc(Nc2cc(=O)[nH]c3ccc(C(c4ccc(Cl)cc4)c4ccc(Cl)cc4)cc23)cc1` [Compound 123, 4-[4-({6-[Bis(4-chlorophenyl)methyl]-2-oxo-1,2-dihydroquinolin-4-yl}amino)phenoxy]butanamide] are 219 nM and > 10000 nM.
In the same order, the values of `COC(=O)Cc1ccc(Nc2cc(=O)[nH]c3ccc(C(c4ccc(Cl)cc4)c4ccc(Cl)cc4)cc23)cc1` [Compound 124, Methyl [4-({6-[bis(4-chlorophenyl)methyl]-2-oxo-1,2-dihydroquinolin-4-yl}amino)phenyl]acetate] are 27 nM and > 10000 nM.
For `O=C(O)Cc1ccc(Nc2cc(=O)[nH]c3ccc(C(c4ccc(Cl)cc4)c4ccc(Cl)cc4)cc23)cc1` [Compound 125, [4-({6-[Bis(4-chlorophenyl)methyl]-2-oxo-1,2-dihydroquinolin-4-yl}amino)phenyl]acetic acid], the EC50 in assay [1] was 2480 nM; in assay [2], > 10000 nM.
As to `NC(=O)Cc1ccc(Nc2cc(=O)[nH]c3ccc(C(c4ccc(Cl)cc4)c4ccc(Cl)cc4)cc23)cc1` [Compound 126, 2-[4-({6-[Bis(4-chlorophenyl)methyl]-2-oxo-1,2-dihydroquinolin-4-yl}amino)phenyl]acetamide], the EC50 came to 79 nM in assay [1] and 8100 nM in assay [2].
In the case of `O=C(O)c1ccc(CN2CCC(Nc3cc(=O)[nH]c4ccc(C(c5ccc(Cl)cc5)c5ccc(Cl)cc5)cc34)CC2)cc1` [Compound 127, 4-{[4-({6-[Bis(4-chlorophenyl)methyl]-2-oxo-1,2-dihydroquinolin-4-yl}amino)piperidin-1-yl]methyl}benzoic acid], the figures for the EC50 in assay [1] and in assay [2] were 876 nM and > 10000 nM, respectively.
In the same order, the values of `O=C(O)c1ccc(CN2CCC(Nc3cc(=O)[nH]c4ccc(C(c5ccc(Cl)cc5)c5ccc(Cl)cc5)cc34)CC2)s1` [Compound 128, 5-{[4-({6-[Bis(4-chlorophenyl)methyl]-2-oxo-1,2-dihydroquinolin-4-yl}amino)piperidin-1-yl]methyl}thiophene-2-carboxylic acid] are 293 nM and 9700 nM.
In the same order, the values of `O=C(O)c1cccc(CN2CCC(Nc3cc(=O)[nH]c4ccc(C(c5ccc(Cl)cc5)c5ccc(Cl)cc5)cc34)CC2)c1` [Compound 129, 3-((4-((6-(bis(4-chlorophenyl)methyl)-2-oxo-1,2-dihydroquinolin-4-yl)amino)piperidin-1-yl)methyl)benzoic acid] are 157 nM and > 10000 nM.
In the same order, the values of `O=C(O)c1ccc(S(=O)(=O)N2CCC(Nc3cc(=O)[nH]c4ccc(C(c5ccc(Cl)cc5)c5ccc(Cl)cc5)cc34)CC2)s1` [Compound 130, 5-[4-([6-[bis(4-chlorophenyl)methyl]-2-hydroxyquinolin-4-yl]amino)piperidine-1-sulfonyl]thiophene-2-carboxylic acid, trifluoroacetic acid salt] are 113 nM and 690 nM.
As for `O=C(O)c1ccc(S(=O)(=O)N2CCC(Nc3cc(=O)[nH]c4ccc(C(c5ccc(Cl)cc5)c5ccc(Cl)cc5)cc34)CC2)o1` [Compound 131, 5-{[4-({6-[Bis(4-chlorophenyl)methyl]-2-oxo-1,2-dihydroquinolin-4-yl}amino)piperidin-1-yl]sulfonyl}furan-2-carboxylic acid], the EC50 was determined as 251 nM in assay [1] and 3930 nM in assay [2].
The like results for `O=c1cc(Nc2ccc(-c3ccccc3)cc2)c2cc(C(c3ccc(Cl)cc3)c3ccc(Cl)cc3)ccc2[nH]1` [Compound 133, 4-(Biphenyl-4-ylamino)-6-[bis(4-chlorophenyl)methyl]-quinolin-2(1H)-one] were, in that order, 73 nM and > 10000 nM.
For the molecule `Cc1ccc(Nc2cc(=O)[nH]c3ccc(C(c4ccc(Cl)cc4)c4ccc(Cl)cc4)cc23)cn1` [Compound 134, 6-[Bis(4-chlorophenyl)methyl]-4-[(6-methylpyridin-3-yl)amino]quinolin-2(1H)-one], the 50% effective concentration (EC50) in assay [1] was 300 nM; in assay [2], 6700 nM.
Take `O=c1cc(NC2CCN(S(=O)(=O)C(F)(F)F)CC2)c2cc(C(c3ccc(Cl)cc3)N3CCN(c4ccccc4)CC3)ccc2[nH]1` (stereo not drawn) [Compound 137, 6-((4-chlorophenyl)(4-phenylpiperazin-1-yl)methyl)-4-((1-((trifluoromethyl)sulfonyl)piperidin-4-yl)amino)quinolin-2(1H)-one]: the EC50 in assay [1] was 290 nM; in assay [2], > 10000 nM.
The like results for `O=C(c1ccc(Nc2cc(=O)[nH]c3ccc(C(c4ccc(Cl)cc4)c4ccc(Cl)cc4)cc23)cc1F)N1CCCC1` [Compound 138] were, in that order, 227 nM and 750 nM.
In the same order, the values of `CCCCNc1cc(C(c2ccc(Cl)cc2)c2ccc(Cl)cc2)cc2c(NC3CCN(S(=O)(=O)C(F)(F)F)CC3)cc(=O)n(C)c12` [Compound 139, 6-[bis(4-chlorophenyl)methyl]-8-(butylamino)-1-methyl-4-[[1-(trifluoromethane)sulfonylpiperidin-4-yl]amino]-1,2-dihydroquinolin-2-one] are > 10000 nM and > 10000 nM.
As to `COCCCc1cc(C(c2ccc(Cl)cc2)c2ccc(Cl)cc2)cc2c(NC3CCN(S(=O)(=O)C(F)(F)F)CC3)cc(=O)[nH]c12` [Compound 140, 6-(bis(4-chlorophenyl)methyl)-8-(3-methoxypropyl)-4-((1-((trifluoromethyl)sulfonyl)piperidin-4-yl)amino)quinolin-2(1H)-one], the half-maximal effective concentration (EC50) in assay [1] was 13 nM; in assay [2], 60 nM.
With `NCCCCNc1cc(C(c2ccc(Cl)cc2)c2ccc(Cl)cc2)cc2c(NC3CCN(S(=O)(=O)C(F)(F)F)CC3)cc(=O)[nH]c12` [Compound 141, 8-((4-aminobutyl)amino)-6-(bis(4-chlorophenyl)methyl)-4-((1-((trifluoromethyl)sulfonyl)piperidin-4-yl)amino)quinolin-2(1H)-one], the half-maximal effective concentration (EC50) is 625 nM in assay [1] and > 10000 nM in assay [2].
As for `OC(c1ccc(Cl)cc1)(c1ccc(Cl)cc1)c1ccc2nccc(/C=C/c3ccccc3)c2c1` [Compound 501, (E)-bis(4-chlorophenyl)(4-styrylquinolin-6-yl)methanol], the EC50 in assay [1] and in assay [2] was > 10000 nM in each case.
For `O=c1cc(/C=C/c2ccccc2)c2cc(C(c3ccc(Cl)cc3)c3ccc(Cl)cc3)ccc2[nH]1` [Compound 502], the EC50 in assay [1] is 580 nM; in assay [2], > 10000 nM.
In the same order, the values of `Clc1ccc(C(c2ccc(Cl)cc2)c2ccc3nccc(/C=C/c4ccccc4)c3c2)cc1` [Compound 503, (E)-6-(bis(4-chlorophenyl)methyl)-4-styrylquinoline] are 191 nM and > 10000 nM.
Turning to `COc1ccc(C(O)(c2ccc3nccc(/C=C/c4ccccc4)c3c2)c2nccs2)cc1` (stereo not drawn) [Compound 504, (E)-(4-methoxyphenyl)(4-styrylquinolin-6-yl)(thiazol-2-yl)methanol], the 50% effective concentration (EC50) in assay [1] was 342 nM; in assay [2], > 10000 nM.
`COc1ccc(C(c2ccc3nccc(/C=C/c4ccccc4)c3c2)c2nccs2)cc1` (stereo not drawn) [Compound 505, (E)-2-((4-methoxyphenyl)(4-styrylquinolin-6-yl)methyl)thiazole]: the values for the EC50 in assay [1] and in assay [2] were 326 nM and > 10000 nM, respectively.
The like results for `OC(c1ccc(Cl)cc1)(c1ccc2nccc(/C=C/c3ccccc3)c2c1)c1cccs1` (stereo not drawn) [Compound 506, (4-Chlorophenyl){4-[(E)-2-phenylethenyl]quinolin-6-yl}thiophen-2-ylmethanol] were, in that order, > 10000 nM and > 10000 nM.
`OC(c1ccc(Cl)cc1)(c1ccsc1)c1ccc2nccc(/C=C/c3ccccc3)c2c1` (stereo not drawn) [Compound 507, (4-Chlorophenyl){4-[(E)-2-phenylethenyl]quinolin-6-yl}thiophen-3-ylmethanol]: the figures for the EC50 in assay [1] and in assay [2] were 5480 nM and > 10000 nM, respectively.
As to `Clc1ccc(C(c2ccc3nccc(/C=C/c4ccccc4)c3c2)c2cccs2)cc1` (stereo not drawn) [Compound 508, 6-[(4-Chlorophenyl)(thiophen-2-yl)methyl]-4-[(E)-2-phenylethenyl]quinoline], the EC50 in assay [1] is 375 nM; in assay [2], > 10000 nM.
On to `Clc1ccc(C(c2ccsc2)c2ccc3nccc(/C=C/c4ccccc4)c3c2)cc1` (stereo not drawn) [Compound 509, 6-[(4-Chlorophenyl)(thiophen-3-yl)methyl]-4-[(E)-2-phenylethenyl]quinoline], for which the concentration for a half-maximal effect (EC50) is 140 nM in assay [1] and > 10000 nM in assay [2].
In the same order, the values of `Clc1ccc(C(c2ccc3nccc(/C=C/c4ccccc4)c3c2)c2nccs2)cc1` (stereo not drawn) [Compound 511, (E)-2((4-chlorophenyl)(4-styrylquinolin-6-yl)methyl)thiazole] are 136 nM and > 10000 nM.
With `COc1ccc(C(O)(c2ccc(Cl)cc2)c2ccc3nc(OC(C)(C)C)cc(/C=C/c4ccccc4)c3c2)cc1` (stereo not drawn) [Compound 512, (E)-(2-(tert-butoxy)-4-styrylquinolin-6-yl)(4-chlorophenyl)(4-methoxyphenyl)methanol], the EC50 in assay [1] and in assay [2] was > 10000 nM throughout.
As for `CC(C)(C)OC(=O)N1CC=C(c2ccnc3ccc(C(c4ccc(Cl)cc4)c4nccs4)cc23)CC1` (stereo not drawn) [Compound 513, tert-butyl 4-(6-((4-chlorophenyl)(thiazol-2-yl)methyl)quinolin-4-yl)-5,6-dihydropyridine-1(2H)-carboxylate], the EC50 in assay [1] is 1500 nM; in assay [2], > 10000 nM.

The record behind these values is patent US9266835B2, “Quinoline derivatives useful as CB-1 inverse agonists” (JANSSEN PHARMACEUTICA NV, priority 2014, dated 2016).
